Assay results published in the CheMixHub viscosity set.

Test: xn = mol fraction of the nth substance listed

CCOC(=O)CCBr + CCCCCC
303.15 K, 101 kPa
Details | viscosity [mPa·s]
x1 = 0.2142 | 0.3919
x1 = 0.4043 | 0.55
x1 = 0.5019 | 0.674
x1 = 0.6029 | 0.8315
x1 = 0.8046 | 1.263

CCCCCCCCCCCCCCCCCC + CCCCCCC
101 kPa, x2 = 0.5
Details | viscosity [mPa·s]
298 K | 1.73
318 K | 1.241

CCCCCCCCCc1ccccc1 + CCCCCCC
313.15 K, 100 kPa
Details | viscosity [mPa·s]
x2 = 0.097 | 1.82
x2 = 0.265 | 1.398
x2 = 0.405 | 1.111
x2 = 0.523 | 0.918
x2 = 0.671 | 0.691
x2 = 0.754 | 0.59
x2 = 0.86 | 0.411

CC(CC(C)(C)C)CP(=O)([O-])CC(C)CC(C)(C)C.CCCCCCCC[P+](C)(C)C (stereo unspecified) + CCCCCCCCCCCC
viscosity [mPa·s], 101 kPa
Details | 298.15 K | 303.15 K | 308.15 K | 313.15 K | 318.15 K | 323.15 K
x2 = 0.24 | 172 | 129 | 99.8 | 79.4 | 63.3 | 51.3
x2 = 0.41 | 58.2 | 46 | 36.5 | 30 | 25 | 21.3
x2 = 0.55 | 23.8 | 20.1 | 17.1 | 14.9 | 12.9 | –

CCCCCC(C)O (stereo unspecified) + CCCCCCCCCCCC
298.15 K, 101 kPa
Details | viscosity [mPa·s]
x2 = 0.0554 | 4.35
x2 = 0.0998 | 3.85
x2 = 0.1555 | 3.3
x2 = 0.1998 | 2.92
x2 = 0.2554 | 2.51
x2 = 0.2998 | 2.23
x2 = 0.3554 | 1.94
x2 = 0.4 | 1.74
x2 = 0.4555 | 1.54
x2 = 0.4999 | 1.42
x2 = 0.5554 | 1.3
x2 = 0.5998 | 1.22
x2 = 0.6554 | 1.16
x2 = 0.6998 | 1.12
x2 = 0.7553 | 1.09
x2 = 0.7999 | 1.08
x2 = 0.8554 | 1.07
x2 = 0.8995 | 1.06
x2 = 0.9546 | 1.11

CCCCCCCCCc1ccccc1 + CCCCCCCCCCCC
viscosity [mPa·s], 102 kPa
Details | x1 = 0.1006 | x1 = 0.2 | x1 = 0.3002 | x1 = 0.4001 | x1 = 0.5 | x1 = 0.5999 | x1 = 0.7004 | x1 = 0.8064 | x1 = 0.8998
293.15 K | 1.59 | 1.69 | 1.81 | 1.94 | 2.09 | 2.25 | 2.44 | 2.66 | 2.88
303.15 K | 1.33 | 1.41 | 1.5 | 1.61 | 1.72 | 1.84 | 1.99 | 2.15 | 2.31
313.15 K | 1.13 | 1.2 | 1.27 | 1.35 | 1.44 | 1.54 | 1.65 | 1.78 | 1.9
323.15 K | 0.971 | 1.03 | 1.09 | 1.16 | 1.23 | 1.31 | 1.4 | 1.5 | 1.59

CCCCCCCCCc1ccccc1 + CCCCCCCCCCCCCCCC
viscosity [mPa·s], 102 kPa
Details | x1 = 0.1006 | x1 = 0.2005 | x1 = 0.3005 | x1 = 0.4001 | x1 = 0.5008 | x1 = 0.6006 | x1 = 0.6997 | x1 = 0.7978 | x1 = 0.9003
293.15 K | 3.4 | 3.32 | 3.28 | 3.22 | 3.18 | 3.15 | 3.13 | 3.12 | 3.12
303.15 K | 2.71 | 2.65 | 2.62 | 2.58 | 2.54 | 2.52 | 2.51 | 2.5 | –
313.15 K | 2.2 | 2.16 | 2.13 | 2.11 | 2.09 | 2.06 | 2.05 | 2.05 | 2.05
323.15 K | 1.83 | 1.8 | 1.78 | 1.76 | 1.74 | 1.73 | 1.72 | 1.71 | 1.71

CCCCCCCCCCCCCCCCCCCc1ccccc1 + CCCCCCCCCCCCCCCCCCC
313.15 K, 101 kPa
Details | viscosity [mPa·s]
x2 = 0.1066 | 7.51
x2 = 0.1924 | 7.01
x2 = 0.433 | 5.74
x2 = 0.4887 | 5.47
x2 = 0.6377 | 4.83
x2 = 0.7465 | 4.38
x2 = 0.8251 | 4.09

CCCCCCCCCCCO + CCCCCCCCCCO
Details | viscosity [mPa·s]
293.15 K, 101.33 kPa, x2 = 0.1426 | 16.47
293.15 K, 101.33 kPa, x2 = 0.4429 | 15.7
293.15 K, 101.33 kPa, x2 = 0.6078 | 15.37
293.15 K, 101.33 kPa, x2 = 0.7475 | 15.08
293.15 K, 101.33 kPa, x2 = 0.889 | 14.71
298.15 K, 101 kPa, x2 = 0.6999 | 12.35
298.15 K, 101.33 kPa, x2 = 0.1426 | 13.44
298.15 K, 101.33 kPa, x2 = 0.298 | 13.14
298.15 K, 101.33 kPa, x2 = 0.7475 | 12.33
298.15 K, 101.8 kPa, x2 = 0.1083 | 13.95
298.15 K, 101.8 kPa, x2 = 0.3183 | 13.43
298.15 K, 101.8 kPa, x2 = 0.5207 | 12.98
298.15 K, 101.8 kPa, x2 = 0.7164 | 12.54
308.15 K, 101.8 kPa, x2 = 0.1083 | 9.593
308.15 K, 101.8 kPa, x2 = 0.3183 | 9.242
308.15 K, 101.8 kPa, x2 = 0.5207 | 8.963
308.15 K, 101.8 kPa, x2 = 0.7164 | 8.674
308.15 K, 101.8 kPa, x2 = 0.907 | 8.384
318.15 K, 101.8 kPa, x2 = 0.1083 | 6.748
318.15 K, 101.8 kPa, x2 = 0.3183 | 6.559
318.15 K, 101.8 kPa, x2 = 0.5207 | 6.332
318.15 K, 101.8 kPa, x2 = 0.7164 | 6.148
318.15 K, 101.8 kPa, x2 = 0.907 | 5.962
